Numbering of substitutions follows the chain as printed.
Key:
[1] = target: T1, wt hhIYD (iodotyrosine deiodinase from Haliscomenobacter hydrossis) (Haliscomenobacter hydrossis, UniProt F4KU78); experiment: quenching of active-site FMNox fluorescence; assay type: binding
T1 sequence (F4KU78 1-222): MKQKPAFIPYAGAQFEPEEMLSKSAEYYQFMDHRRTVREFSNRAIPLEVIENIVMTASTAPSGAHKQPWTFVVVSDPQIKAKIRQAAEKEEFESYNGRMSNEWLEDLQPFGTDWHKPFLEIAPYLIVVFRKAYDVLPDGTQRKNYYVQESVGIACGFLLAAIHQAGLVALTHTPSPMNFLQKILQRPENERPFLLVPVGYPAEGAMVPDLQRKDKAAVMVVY

[2] = target: T2, wt hhIYD (iodotyrosine deiodinase from Haliscomenobacter hydrossis) (Haliscomenobacter hydrossis, UniProt F4KU78, T173A); experiment: steady-state reductive deiodination; assay type: biochemical; conditions: read-out: I2-Tyr / KM; dithionite as reductant
T2 sequence (F4KU78 1-222 T173A): T1 sequence (F4KU78 1-222) with T173A

[3] = target: T2, wt hhIYD (iodotyrosine deiodinase from Haliscomenobacter hydrossis); experiment: quenching of active-site FMNox fluorescence; assay type: binding
[4] = target: T1, wt hhIYD (iodotyrosine deiodinase from Haliscomenobacter hydrossis); experiment: UV-vis spectrum of enzyme-bound FMN, dithionite reduction; assay type: binding; conditions: pH 6 MES, 500 mM NaCl, 10% glycerol; anaerobic

Row | SMILES | Kd [1] [µM] | Km [2] [µM] | Kd [3] [µM] | UV-vis spectrum of enzyme-bound FMN, dithionite reduction [4]
1 | N[C@@H](Cc1cc(I)c(O)c(I)c1)C(=O)O [I2-Tyr] | 2.9 ± 0.1 | 35 ± 8 | 2.6 ± 0.2 | 
2 | Cc1cc2nc3c(=O)[nH]c(=O)nc-3n(C[C@H](O)[C@H](O)[C@H](O)COP(=O)(O)O)c2cc1C [FMN] |  |  |  | Stoichiometric addition of dithionite to wt hhIYD under anaerobic conditions reduced its FMNox to FMNhq

Source: publication PMC4684082 (Journal of the American Chemical Society, 2015)
